For 24 molecules, EC50 results are on record in US9630949B2, “Oxoazetidine derivatives, process for the preparation thereof and use thereof in human medicine and in cosmetics” (GALDERMA RESEARCH & DEVELOPMENT, priority 2008, dated 2017).

The target of test [1] is hMC4R (Homo sapiens (Human), UniProt P32245). The experiment in a line: Transactivation test: melanocortin receptors (pCRE-Luc luciferase reporter), hMC4R. In kind it is cell-based. As to conditions: HEK293 transfected with pCRE-Luc and hMC4R; products tested alone (agonist), 6 h incubation; % activity vs NDP-MSH 10 nM; IA: inactive. As for the experimental part:
(§1) Transactivation Test: Melanocortin Receptors
(§2) HEK293 lines are transfected with the pCRE-Luc and hMC1R, hMC3R, hMC4R or hMC5R vectors. The cells are cultured at 37° C., 5% CO2, in DMEM medium supplemented with 10% of foetal calf serum.
(§3) In the presence of an activator (agonist), the melanocortin receptor will activate the cAMP pathway which, via the CRE-Luc vector, will result in the synthesis of luciferase. After the addition of a lysis buffer containing a luminescent substrate for luciferase, it will be possible to measure the luminescence proportional to the degree of activation or of inhibition of the receptor.
(§4) The products are solubilized at 10 mM in DMSO. They are tested in the form of dose-response at a final DMSO concentration of 0.1%. The range comprising 10 points and one zero begins at 10 μM with 4-fold dilutions. For testing agonists, the products are tested alone. For determining the behaviour of antagonists, the products of interest are tested in the presence of 1 nM NDP-MSH (reference agonist). The cells are seeded at a rate of 5000 cells per well (384 well plate) in serum-free DMEM medium, and incubated overnight at 37° C., 5% CO2.
(§5) The products and the reference ligand (NDP-MSH) are added the following day, and the plates are again incubated for 6 h at 37° C., 5% CO2. After the addition of lysis buffer containing luciferin, the plates are read on a Top-Count instrument. The results are standardized as % activity using the 100% (cells+NDP-MSH at 10 nM) and 0% (cells alone) controls. An EC50 is calculated for each product using the XLFit software. The results are given in nM.
(Reporter assays use an easily measured gene product as a stand-in for the process of interest.)

The target of test [2] is hMC1R (Homo sapiens (Human), UniProt Q01726). Briefly: Transactivation test: melanocortin receptors (pCRE-Luc luciferase reporter), hMC1R. In kind it is cell-based. The note with it: HEK293 transfected with pCRE-Luc and hMC1R; products tested alone (agonist), 6 h incubation; % activity vs NDP-MSH 10 nM; IA: inactive. As for the experimental part:
as §1, §2, §3, §4, §5

Sequence of hMC4R (P32245 whole entry): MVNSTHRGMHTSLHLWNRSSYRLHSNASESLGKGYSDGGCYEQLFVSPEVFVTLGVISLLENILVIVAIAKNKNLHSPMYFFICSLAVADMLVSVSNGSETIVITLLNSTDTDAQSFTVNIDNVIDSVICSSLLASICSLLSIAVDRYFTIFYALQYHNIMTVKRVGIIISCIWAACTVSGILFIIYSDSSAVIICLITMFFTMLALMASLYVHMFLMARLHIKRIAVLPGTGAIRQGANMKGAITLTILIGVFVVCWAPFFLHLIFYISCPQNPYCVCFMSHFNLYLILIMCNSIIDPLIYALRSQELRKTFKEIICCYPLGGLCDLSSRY
Sequence of hMC1R (Q01726 whole entry): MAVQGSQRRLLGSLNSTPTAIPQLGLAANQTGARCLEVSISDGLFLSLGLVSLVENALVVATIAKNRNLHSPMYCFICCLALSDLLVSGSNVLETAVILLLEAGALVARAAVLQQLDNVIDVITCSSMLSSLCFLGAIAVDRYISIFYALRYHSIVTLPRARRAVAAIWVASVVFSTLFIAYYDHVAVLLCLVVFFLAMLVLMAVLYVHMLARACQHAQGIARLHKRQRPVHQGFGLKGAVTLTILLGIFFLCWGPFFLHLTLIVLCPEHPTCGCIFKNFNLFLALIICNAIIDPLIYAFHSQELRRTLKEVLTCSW

A word on the EC50: it is the midpoint of the concentration-response curve. Regarding `CCCCOC1(c2ccc(F)cc2)CN(C(=O)[C@H](Cc2ccc(OC)cc2)NC(=O)[C@H](Cc2c[nH]cn2)NC(=O)c2ccccc2)C1` [Compound 8, N-[(S)-1-[(S)-2-[3-butoxy-3-(4-fluorophenyl)azetidin-1-yl]-1-(4-methoxybenzyl)-2-oxoethylcarbamoyl]-2-(1H-imidazol-4-yl)ethyl]benzamide], the EC50 in test [1] was 4000 nM; in test [2] it was 120 nM.
Consider `CCCCOC1(c2cccc(F)c2)CN(C(=O)[C@H](Cc2ccc(OC)cc2)NC(=O)[C@H](Cc2c[nH]cn2)NC(=O)c2ccccc2)C1` [Compound 9, N-[(S)-1-[(S)-2-[3-butoxy-3-(3-fluorophenyl)azetidin-1-yl]-1-(4-methoxybenzyl)-2-oxoethylcarbamoyl]-2-(1H-imidazol-4-yl)ethyl]benzamide], for which the EC50 is 1000 nM in test [1] and 120 nM in test [2].
The matching figures for `COc1ccc(C[C@H](NC(=O)CCc2c[nH]cn2)C(=O)N2CC(O)(c3ccccc3C)C2)cc1` [Compound 11, N-[(S)-2-(3-hydroxy-3-o-tolylazetidin-1-yl)-1-(4-methoxybenzyl)-2-oxoethyl]-3-(1H-imidazol-4-yl)propionamide]: 8000 nM and 4000 nM.
For `CCOC1(c2ccccc2C)CN(C(=O)[C@H](Cc2ccc(OC)cc2)NC(=O)CCc2c[nH]cn2)C1` [Compound 13, N-[(S)-2-(3-ethoxy-3-o-tolylazetidin-1-yl)-1-(4-methoxybenzyl)-2-oxoethyl]-3-(1H-imidazol-4-yl)propionamide], in that order: 15000 nM and 2000 nM.
For `COc1ccc(C[C@H](NC(=O)CCc2c[nH]cn2)C(=O)N2CC(OCC3CC3)(c3ccccc3C)C2)cc1` [Compound 14, N-[(S)-2-(3-cyclopropylmethoxy-3-o-tolylazetidin-1-yl)-1-(4-methoxybenzyl)-2-oxoethyl]-3-(1H-imidazol-4-yl)propionamide], in that order: 15000 nM and 2000 nM.
`CCCCOC1(c2ccccc2C)CN(C(=O)[C@@H](Cc2ccc(OC)cc2)NC(=O)CCc2c[nH]cn2)C1` [Compound 15, N-[(R)-2-(3-butoxy-3-o-tolylazetidin-1-yl)-1-(4-methoxybenzyl)-2-oxoethyl]-3-(1H-imidazol-4-yl)propionamide]: the concentration for a half-maximal effect (EC50) in test [1] stood at 4000 nM; in test [2] it was 120 nM.
For `CCCCOC1(c2ccccc2C)CN(C(=O)[C@H](Cc2ccc(OC)cc2)NC(=O)CCc2c[nH]cn2)C1` [Compound 16, N-[(S)-2-(3-butoxy-3-o-tolylazetidin-1-yl)-1-(4-methoxybenzyl)-2-oxoethyl]-3-(1H-imidazol-4-yl)propionamide], in that order: 15000 nM and 2000 nM.
The matching figures for `CCOC1(c2ccccc2C)CN(C(=O)[C@@H](Cc2ccc(OC)cc2)NC(=O)CCc2c[nH]cn2)C1` [Compound 17, N-[(R)-2-(3-ethoxy-3-o-tolylazetidin-1-yl)-1-(4-methoxybenzyl)-2-oxoethyl]-3-(1H-imidazol-4-yl)propionamide]: 8000 nM and 250 nM.
As to `CCCCOC1(c2ccccc2)CN(C(=O)[C@@H](CC2CCCCC2)NC(=O)CCc2c[nH]cn2)C1` [Compound 18, N-[(R)-2-(3-butoxy-3-phenylazetidin-1-yl)-1-cyclohexylmethyl-2-oxoethyl]-3-(1H-imidazol-4-yl)propionamide], the EC50 in test [1] and in test [2] was 8000 nM in each case.
For `CCCCOC1(c2ccccc2)CN(C(=O)[C@@H](Cc2ccc(Cl)cc2Cl)NC(=O)CCc2c[nH]cn2)C1` [Compound 19, N-[(R)-2-(3-butoxy-3-phenylazetidin-1-yl)-1-(2,4-dichlorobenzyl)-2-oxoethyl]-3-(1H-imidazol-4-yl)propionamide], the EC50 in test [1] amounted to 120 nM; in test [2], 2000 nM.
The matching figures for `COc1ccc(C[C@@H](NC(=O)CCc2c[nH]cn2)C(=O)N2CC(OCC3CC3)(c3ccccc3C)C2)cc1` [Compound 20, N-[(R)-2-(3-cyclopropylmethoxy-3-o-tolylazetidin-1-yl)-1-(4-methoxybenzyl)-2-oxoethyl]-3-(1H-imidazol-4-yl)propionamide]: 4000 nM and 120 nM.
Take `CCCOC1(c2ccccc2C)CN(C(=O)[C@@H](Cc2ccc(OC)cc2)NC(=O)CCc2c[nH]cn2)C1` [Compound 22, N-[(R)-1-(4-methoxybenzyl)-2-oxo-2-(3-propoxy-3-o-tolylazetidin-1-yl)ethyl]-3-(1H-imidazol-4-yl)propionamide]: the EC50 in test [1] turned out to be 10000 nM; in test [2], 120 nM.
Turning to `CCCCOC1(c2ccc(F)cc2)CN(C(=O)[C@@H](Cc2ccc(OC)cc2)NC(=O)CCc2c[nH]cn2)C1` [Compound 23, N-[(R)-2-[3-butoxy-3-(4-fluorophenyl)azetidin-1-yl]-1-(4-methoxybenzyl)-2-oxoethyl]-3-(1H-imidazol-4-yl)propionamide], the EC50 in test [1] amounted to 1000 nM; in test [2], 60 nM.
Turning to `CCCCCOC1(c2ccccc2C)CN(C(=O)[C@@H](Cc2ccc(OC)cc2)NC(=O)CCc2c[nH]cn2)C1` [Compound 24, N-[(R)-1-(4-methoxybenzyl)-2-oxo-2-(3-pentyloxy-3-o-tolylazetidin-1-yl)ethyl]-3-(1H-imidazol-4-yl)propionamide], the EC50 came to 4000 nM in test [1] and 250 nM in test [2].
The matching figures for `CCCCCCOC1(c2ccccc2C)CN(C(=O)[C@@H](Cc2ccc(OC)cc2)NC(=O)CCc2c[nH]cn2)C1` [Compound 25, N-[(R)-2-(3-hexyloxy-3-o-tolylazetidin-1-yl)-1-(4-methoxybenzyl)-2-oxoethyl]-3-(1H-imidazol-4-yl)propionamide]: 8000 nM and 1000 nM.
On to `CCCCCC1(c2ccccc2)CN(C(=O)[C@@H](Cc2ccc(OC)cc2)NC(=O)CCc2c[nH]cn2)C1` [Compound 26, N-[(R)-1-(4-methoxybenzyl)-2-oxo-2-(3-pentyl-3-phenylazetidin-1-yl)ethyl]-3-(1H-imidazol-4-yl)propionamide], for which the values for the EC50 in test [1] and in test [2] were 4000 nM and 500 nM, respectively.
For `CCCCC1(c2ccccc2)CN(C(=O)[C@@H](Cc2ccc(OC)cc2)NC(=O)CCc2c[nH]cn2)C1` [Compound 27, N-[(R)-2-(3-butyl-3-phenylazetidin-1-yl)-1-(4-methoxybenzyl)-2-oxoethyl]-3-(1H-imidazol-4-yl)propionamide], in that order: 8000 nM and 500 nM.
For `COc1ccc(C[C@@H](NC(=O)CCc2c[nH]cn2)C(=O)N2CC(OCC3CC3)(c3ccccc3)C2)cc1` [Compound 28, N-[(R)-2-(3-cyclopropylmethoxy-3-phenylazetidin-1-yl)-1-(4-methoxybenzyl)-2-oxoethyl]-3-(1H-imidazol-4-yl)propionamide], in that order: 8000 nM and 1000 nM.
For `CCCCOC1(c2ccc(F)cc2)CN(C(=O)[C@@H](Cc2cccc(F)c2)NC(=O)CCc2c[nH]cn2)C1` [Compound 31, N-[(R)-2-[3-butoxy-3-(4-fluorophenyl)azetidin-1-yl]-1-(3-fluorobenzyl)-2-oxoethyl]-3-(1H-imidazol-4-yl)propionamide], in that order: 4000 nM and 500 nM.
Turning to `CCCCOC1(c2ccc(F)cc2)CN(C(=O)[C@@H](Cc2ccc(F)cc2)NC(=O)CCc2c[nH]cn2)C1` [Compound 32, N-[(R)-2-[3-butoxy-3-(4-fluorophenyl)azetidin-1-yl]-1-(4-fluorobenzyl)-2-oxoethyl]-3-(1H-imidazol-4-yl)propionamide], the EC50 in test [1] came out at 4000 nM; in test [2] it was 1000 nM.
The matching figures for `CCCCOC1(c2ccccc2)CN(C(=O)[C@@H](Cc2ccc(F)cc2)NC(=O)CCc2c[nH]cn2)C1` [Compound 33, N-[(R)-2-(3-butoxy-3-phenylazetidin-1-yl)-1-(4-fluorobenzyl)-2-oxoethyl]-3-(1H-imidazol-4-yl)propionamide]: 2000 nM and 500 nM.
For `CCCCOC1(c2ccc(F)cc2)CN(C(=O)[C@@H](Cc2ccccc2)NC(=O)CCC2=NCC=N2)C1` [Compound 34, N-{(R)-1-benzyl-2-[3-butoxy-3-(4-fluoro-phenyl)azetidin-1-yl]-2-oxoethyl}-3-(4H-imidazol-2-yl)propionamide], in that order: 2000 nM and 1000 nM.
For `CCCCOC1(c2ccccc2)CN(C(=O)[C@@H](Cc2ccccc2)NC(=O)CCc2c[nH]cn2)C1` [Compound 35, N-[(R)-1-benzyl-2-(3-butoxy-3-phenylazetidin-1-yl)-2-oxoethyl]-3-(1H-imidazol-4-yl)propionamide], in that order: 2000 nM and 500 nM.
Take `CCCCOC1(c2ccccc2)CN(C(=O)[C@@H](Cc2ccc(OC)cc2)NC(=O)CCc2c[nH]cn2)C1` [Compound 36, N-[(R)-2-(3-butoxy-3-phenylazetidin-1-yl)-1-(4-methoxybenzyl)-2-oxoethyl]-3-(1H-imidazol-4-yl)propionamide]: the figures for the EC50 in test [1] and in test [2] were 3000 nM and 1000 nM, respectively.
